Experimental data reported in US6399629B1, “Efflux pump inhibitors” (priority 1998, dated 2002).
Counter-ions that a name gives are not always drawn.

Experiments:
[1] = tested on: Pseudomonas aeruginosa PAM1001; assay: microbe, parasite or virus in culture; format: cell-based; conditions: Pseudomonas aeruginosa, PAM1001, read-out: Inhibition (%) of growth of P. aeruginosa PAM1001
Procedure: For compounds labeled with the prefix ‘D’, potentiation is measured by inhibition of growth of Pseudomonas aeruginosa PAM1001 at varying concentrations of efflux pump inhibitors (EPIs) in the presence of levofloxacin (0.25 microg/mL). Bacteria are grown in Mueller Hinton Broth (MHB, Difco) with an initial inoculum of 1×10^6 CFU/mL. Kinetics of bacterial growth is monitored, during 18 h of incubation at 37° C., by measurement of the culture absorbance at 650 nm using a 96-well plate spectrophotometer (SpectraMax, Molecular Devices). The inhibitory effect of EPIs is expressed as a percentage of growth inhibition compared to a control bacterial culture grown in the presence of 0.25 microg/mL levofloxacin but without EPIs.

[2] = tested on: Pseudomonas aeruginosa PAM1001; assay: checkerboard assay (broth microdilution): levofloxacin MIC in presence of efflux pump inhibitor; format: cell-based
Summary of the method: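 Reduction of levofloxacin MIC by an efflux pump inhibitor measured against Pseudomonas aeruginosa PAM1001. Each microdilution well held a unique combination of levofloxacin and inhibitor (max 40 μg/mL) in MHB, inoculum 5×10^5 CFU/mL. Readout after 20 h, 35° C: OD650 plus visual inspection.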

Row | Compound | inhibition at 20 µg/mL [1] [%] | inhibition at 40 µg/mL [1] [%] | inhibition at 2.5 µg/mL [1] [%] | inhibition at 5 µg/mL [1] [%] | inhibition at 10 µg/mL [1] [%] | MIC ([2]; Pseudomonas aeruginosa, PAM1001, read-out: MIC of levofloxacin against P. aeruginosa PAM1001) [µg/mL] | Levofloxacin MIC Against P. aerugiuosa PAM1001 in Presence of Efflux Pump Inhibitor (EPI), Minimum Inhibitory Concentration ([2]; EPI Conc. 0 μg/mL) [µg/mL] | Levofloxacin MIC Against P. aerugiuosa PAM1001 in Presence of Efflux Pump Inhibitor (EPI), Minimum Inhibitory Concentration ([2]; EPI Conc. 0.625 μg/mL) [µg/mL] | Levofloxacin MIC Against P. aerugiuosa PAM1001 in Presence of Efflux Pump Inhibitor (EPI), Minimum Inhibitory Concentration ([2]; EPI Conc. 1.25 μg/mL) [µg/mL] | Levofloxacin MIC Against P. aerugiuosa PAM1001 in Presence of Efflux Pump Inhibitor (EPI), Minimum Inhibitory Concentration ([2]; EPI Conc. 2.5 μg/mL) [µg/mL] | Levofloxacin MIC Against P. aerugiuosa PAM1001 in Presence of Efflux Pump Inhibitor (EPI), Minimum Inhibitory Concentration ([2]; EPI Conc. 5 μg/ mL) [µg/mL] | Levofloxacin MIC Against P. aerugiuosa PAM1001 in Presence of Efflux Pump Inhibitor (EPI), Minimum Inhibitory Concentration ([2]; EPI Conc. 10 μg/mL) [µg/mL] | Levofloxacin MIC Against P. aerugiuosa PAM1001 in Presence of Efflux Pump Inhibitor (EPI), Minimum Inhibitory Concentration ([2]; EPI Conc. 20 μg/mL) [µg/mL] | Levofloxacin MIC Against P. aerugiuosa PAM1001 in Presence of Efflux Pump Inhibitor (EPI), Minimum Inhibitory Concentration ([2]; EPI Conc. 40 μg/mL) [µg/mL]
1 | N[C@H]1CN[C@H](C(=O)N2C[C@H](NC(=O)[C@H](O)CCc3ccccc3)C[C@H]2C(=O)Nc2cnc3ccccc3c2)C1 (mixture of isomers) [Compound D101, trans-4-Amino-L-Prolyl-trans-4-((R)-2-Hydroxy-4-Phenylbutyrylamino)-L-Proline 3-Quinolylamide Trihydrochloride] | 20 | 94 |  |  |  |  |  |  |  |  |  |  |  | 
2 | NCC(=O)N[C@H]1CN[C@H](C(=O)N2C[C@H](NC(=O)[C@H](O)CCc3ccccc3)C[C@H]2C(=O)Nc2cnc3ccccc3c2)C1 (mixture of isomers) [Compound D103, trans-4-Glycylamino-L-Prolyl-trans-4-((R)-2-Hydroxy-4-Phenylbutyrylamino)-L-Proline 3-Quinolylamide Trihydrochloride] | 100 | 100 | 17 | 6 | 99 |  |  |  |  |  |  |  |  | 
3 | NCC(=O)N[C@@H]1CN[C@H](C(=O)N2C[C@H](NC(=O)[C@H](O)CCc3ccccc3)C[C@H]2C(=O)Nc2cnc3ccccc3c2)C1 (mixture of isomers) [Compound D104, cis-4-Glycylamino-L-Prolyl-trans-4-((R)-2-Hydroxy-4-Phenylbutyrylamino)-L-Proline 3-Quinolylamide Trihydrochloride] | 62 | 100 | 18 | 19 | 14 |  |  |  |  |  |  |  |  | 
4 | NCC(=O)N[C@@H]1CN[C@@H](C(=O)N2C[C@H](NC(=O)[C@H](O)CCc3ccccc3)C[C@H]2C(=O)Nc2cnc3ccccc3c2)C1 (mixture of isomers) [Compound D105, trans-4-Glycylamino-D-Prolyl-trans-4-((R)-2-Hydroxy-4-Phenylbutyrylamino)-L-proline 3-Quinolylamide Trihydrochloride] | 99 | 101 | 19 | 18 | 50 |  |  |  |  |  |  |  |  | 
5 | NC[C@H]1CN[C@H](C(=O)N2C[C@H](NC(=O)[C@H](O)CCc3ccccc3)C[C@H]2C(=O)Nc2cnc3ccccc3c2)C1 (mixture of isomers) [Compound D109, trans-4-Aminomethyl-L-Prolyl-trans-4-((R)-2-Hydroxy-4-Phenylbutyrylamino)-L-Proline 3-Quinolylamide Trihydrochloride] | 100 | 100 | 17 | 21 | 98 |  |  |  |  |  |  |  |  | 
6 | CNCC(=O)N1C[C@H](N)C[C@H]1C(=O)N1C[C@H](NC(=O)[C@H](O)CCc2ccccc2)C[C@H]1C(=O)Nc1cnc2ccccc2c1 (mixture of isomers) [Compound D111, 1-(N-Methylglycyl)-trans-4-Amino-L-Prolyl-trans-4-((R)-2-Hydroxy-4-Phenylbutyrylamino)-L-Proline 3-Quinolylamide Trihydrochloride] | 27 | 100 | 20 | 20 | 19 |  |  |  |  |  |  |  |  | 
7 | C[C@H]1COc2c(N3CCN(C)CC3)c(F)cc3c(=O)c(C(=O)O)cn1c23 [levofloxacin, reference compound] |  |  |  |  |  | 4 |  |  |  |  |  |  |  | 
8 | (2R,4R)-4-(Aminomethyl)-N-(2-phenylethyl)-N-(3-quinolylcarbamoyl)ethyl]-2-pyrrolidinecarboxamide [Compound M45] |  |  |  |  |  |  | 4 | 4 | 4 | 1 | 0.50 | 0.03 | 0.015 | 0.015
9 | (2R,4S)-4-(2-Aminoacetamideo)-N-(2-methylpropyl)-N-(7-ethyl-3-quinolylcarbamoyl)ethyl]-2-pyrrolidinecarboxamide [Compound M44] |  |  |  |  |  |  | 4 | 4 | 4 | 4 | 1 | 0.06 | 0.015 | 0.03
10 | (2R,4S)-4-[(2R)-2-Aminopropionamido]-N-(2-phenylethyl)-N-(3-quinolylcarbamoyl)ethyl]-2-pyrrolidinecarboxamide [Compound M42] |  |  |  |  |  |  | 4 | 4 | 4 | 4 | 4 | 0.50 | 0.06 | 0.06
11 | (2S,4R)-4-(2-Aminoacetamideo)-N-(2-phenylethyl)-N-(3-quinolylcarbamoyl)ethyl]-2-pyrrolidinecarboxamide [Compound M43] |  |  |  |  |  |  | 4 | 4 | 4 | 2 | 0.25 | 0.125 | 0.125 | 0.06
12 | (2S,4R)-4-(2-Aminoacetamido)-N-[4-benzyl-2-benzimidazolyl)ethyl]-2-pyrrolidinecarboxamide [Compound M99] |  |  |  |  |  |  | 4 | 4 | 4 | 4 | 4 | 4 | 0.06 | 0.03
13 | (2S,4R)-4-(Aminompropionamido)-N-[(1R)-3-phenyl-1-(3-quinolylcarbamolyl)propyl]-2-pyrrolidinecarboxamide [Compound M5] |  |  |  |  |  |  | 4 | 4 | 4 | 4 | 2 | 2 | 0.50 | 0.008
